Where a name gives a salt, the structure may show the parent alone. Some results are limits rather than exact numbers.

The target in data set [1] is T1, NMDA-receptor subtype 2B (Rattus norvegicus, UniProt P35439+Q00960).
T1 construct: Membranes were prepared by homogenization of the whole brain minus cerebellum and medulla oblongata; from tissue; host or cells: rat whole brain minus cerebellum and medulla oblongata (membranes)
The data set is described as follows: 3H-Ro 25-6981 binding (displacement). Particulars: displacement of 5 nM 3H-Ro 25-6981 from rat brain membranes (whole brain minus cerebellum and medulla oblongata), 2 hours at 4° C., Tris-HCl 50 mM pH 7.4. On the procedure: ^3H-Ro 25-6981 binding (Ro 25-6981 is [R—(R*,S*)]-α-(4-Hydroxy-phenyl)-β-methyl-4-(phenyl-methyl)-1-piperidine propanol)
Male Füllinsdorf albino rats weighing between 150–200 g were used. Membranes were prepared by homogenization of the whole brain minus cerebellum and medulla oblongata with a Polytron (10.000 rpm, 30 seconds), in 25 volumes of a cold Tris-HCl 50 mM, EDTA 10 mM, pH 7.1 buffer. The homogenate was centrifuged at 48,000 g for 10 minutes at 4° C. The pellet was resuspended using the Polytron in the same volume of buffer and the homogenate was incubated at 37° C. for 10 minutes. After centrifugation the pellet was homogenized in the same buffer and frozen at −80° C. for at least 16 hours but not more than 10 days. For the binding assay the homogenate was thawed at 37° C., centrifuged and the pellet was washed three times as above in a Tris-HCl 5 mM, pH 7.4 cold buffer. The final pellet was resuspended in the same buffer and used at a final concentration of […].
^3H-Ro 25-6981 binding experiments were performed using a Tris-HCl 50 mM, pH 7.4 buffer. For displacement experiments 5 nM of ^3H-Ro 25-6981 were used and non specific binding was measured using 10 mM of tetrahydroisoquinoline and usually it accounts for 10% of the total. The incubation time was 2 hours at 4° C. and the assay was stopped by filtration on Whatmann GF/B glass fiber filters (Unifilter-96, Packard, Zürich, Switzerland). The filters were washed 5 times with cold buffer. The radioactivity on the filter was counted on a Packard Top-count microplate scintillation counter after addition of […] of microscint 40 (Canberra Packard S. A., Zürich, Switzerland).
The above procedure was performed to determine data for calculation of an IC50 value. The IC50 value is a concentration expressed in micromoles (μM) for a test compound at which 50% of the ligand (in this determination, ^3H-Ro 25-6981) bonded to the receptor is displaced. The binding ability of the compounds of the invention was measured in vitro using a minimum of 10 concentrations and repeated at least once. The specific binding at each concentration was then calculated as the % of the maximum specific binding (100%) obtained in the same experiment, in the absence of a test compound. Competitive displacement of ^3H-Ro 25-6981 was observed, with complete displacement of the radioligand from specific binding sites (usually about 0% of specific binding at the highest concentrations tested). An IC50 value was then calculated with all the ten datapoints (% of specific bound) by plotting the data on a semilogarithmic scale with a sigmoidal fit (Log of the molar concentration on X-axis vs. % of specific bound on the Y-axis) using Microsoft Excel fit software or Microcal Origin software. The pooled normalized values were analyzed using a non-linear regression calculation program which provide IC50 with their relative upper and lower 95% confidence limits.

T1 sequence (Q00960 27-1482, other chains not shown): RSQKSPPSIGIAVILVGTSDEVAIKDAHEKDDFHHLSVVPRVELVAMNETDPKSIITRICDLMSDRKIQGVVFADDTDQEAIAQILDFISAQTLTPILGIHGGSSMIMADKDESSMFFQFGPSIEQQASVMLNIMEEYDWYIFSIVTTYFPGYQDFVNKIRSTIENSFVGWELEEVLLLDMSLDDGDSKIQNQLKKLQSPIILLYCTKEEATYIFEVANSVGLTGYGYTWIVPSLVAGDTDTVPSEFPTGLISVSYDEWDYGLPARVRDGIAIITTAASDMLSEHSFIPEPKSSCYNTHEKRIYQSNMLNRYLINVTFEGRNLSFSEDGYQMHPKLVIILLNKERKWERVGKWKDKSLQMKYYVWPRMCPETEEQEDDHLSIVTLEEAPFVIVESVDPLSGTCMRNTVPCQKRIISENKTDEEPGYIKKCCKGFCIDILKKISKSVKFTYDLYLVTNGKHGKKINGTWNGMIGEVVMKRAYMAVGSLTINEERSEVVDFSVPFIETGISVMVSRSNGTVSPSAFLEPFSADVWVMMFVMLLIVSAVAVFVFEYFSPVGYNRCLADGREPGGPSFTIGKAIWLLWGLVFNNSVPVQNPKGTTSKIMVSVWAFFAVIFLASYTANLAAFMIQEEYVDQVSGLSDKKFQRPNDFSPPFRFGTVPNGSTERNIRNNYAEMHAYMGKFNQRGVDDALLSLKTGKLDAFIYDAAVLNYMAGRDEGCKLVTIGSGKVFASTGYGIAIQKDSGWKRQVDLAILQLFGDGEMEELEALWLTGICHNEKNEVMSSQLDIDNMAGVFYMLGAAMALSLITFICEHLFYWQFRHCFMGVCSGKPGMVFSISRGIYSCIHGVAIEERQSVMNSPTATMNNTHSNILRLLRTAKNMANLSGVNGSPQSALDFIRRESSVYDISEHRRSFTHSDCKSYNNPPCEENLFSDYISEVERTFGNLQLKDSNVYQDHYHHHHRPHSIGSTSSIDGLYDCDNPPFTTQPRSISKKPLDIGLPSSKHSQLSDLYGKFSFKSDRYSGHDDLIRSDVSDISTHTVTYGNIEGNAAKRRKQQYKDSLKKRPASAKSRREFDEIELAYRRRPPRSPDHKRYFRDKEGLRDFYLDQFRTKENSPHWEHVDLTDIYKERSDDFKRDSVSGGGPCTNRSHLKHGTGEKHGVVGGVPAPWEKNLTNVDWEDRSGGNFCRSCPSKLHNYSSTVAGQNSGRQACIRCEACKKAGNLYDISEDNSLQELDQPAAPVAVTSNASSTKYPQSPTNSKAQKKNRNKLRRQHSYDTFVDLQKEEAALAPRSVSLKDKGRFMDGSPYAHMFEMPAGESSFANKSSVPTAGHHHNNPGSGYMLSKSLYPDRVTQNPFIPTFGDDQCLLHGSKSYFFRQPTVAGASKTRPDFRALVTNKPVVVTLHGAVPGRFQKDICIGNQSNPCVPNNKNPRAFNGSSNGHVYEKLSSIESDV

For the compound `Cl.Nc1cccc(C=Cc2cccc(F)c2)n1`, the melting point (in general, the temperature, or range, at which the solid turns liquid) is over 250 °C. The compound `CNc1cccc(/C=C/c2ccccc2)n1.Cl` gave a melting point of 157 to 158 °C. As to `Cc1ccc(C=Cc2cccc(N)n2)cc1.Cl`, the melting point is over 250 °C. On the same count and under the same terms, the same measure for `Nc1cccc(C2=Cc3ccccc3CC2)n1.O=C(O)/C=C/C(=O)O`: 153 to 154 °C; for `Cc1cc(N)nc(C2=Cc3ccccc3CC2)c1.O=C(O)/C=C/C(=O)O`: 142 to 143 °C.

Consider `Nc1cc(CO)nc(C2=Cc3ccccc3CC2)c1.O=C(O)/C=C/C(=O)O`, for which the melting point was 113 °C (dec.). On to `Nc1ccnc(C2=Cc3ccsc3CC2)c1.O=C(O)/C=C/C(=O)O`, for which the melting point lay within 199 to 200 °C. The same measure, in the same setting: in the case of `COc1ccc(C=Cc2cccc(N)n2)cc1.Cl` it was 224 to 226 °C; in that of `COc1cccc2c1CCC(c1cc(N)ccn1)=C2.O=C(O)/C=C/C(=O)O`, 207 to 208 °C. With `Cc1ccc(C)c2c1C=C(c1cc(N)ccn1)CC2.O=C(O)/C=C/C(=O)O`, the melting point lay within 232 to 233 °C. As for `COc1ccc2c(c1)C=C(c1cc(N)ccn1)CC2.O=C(O)/C=C/C(=O)O`, the melting point fell in the range of 193 to 194 °C. Same read-out and setting: the same measure for `Cc1cnc(C2=Cc3cc(Cl)ccc3CC2)cc1N.O=C(O)/C=C/C(=O)O`: over 250 °C; for `Cl.Nc1cccc(C=Cc2ccc(Cl)cc2)n1`: over 250 °C. `Cc1cnc(C2=Cc3ccsc3CC2)cc1N.O=C(O)/C=C/C(=O)O` registered a melting point of 218 to 219 °C. Turning to `Cl.Nc1cccc(C=Cc2ccc(Cl)c(Cl)c2)n1`, the melting point is over 250 °C. Still for that read-out and setting: in the case of `Cl.Nc1cccc(C=Cc2ccc(F)cc2)n1` it was over 250 °C; in that of `Cl.Nc1cccc(C=Cc2cccc(Cl)c2)n1`, 248 to 249 °C; in that of `Cl.Nc1cccc(C=Cc2ccccc2F)n1`, over 250 °C. As to `Cl.Nc1cccc(C=Cc2cccc(C(F)(F)F)c2)n1`, the melting point lay within 222 to 223 °C.

`CC1CC(c2cc(N)ccn2)=Cc2ccccc21.O=C(O)/C=C/C(=O)O` (racemic) had a melting point of 176 to 177 °C. The same measure, in the same setting: in the case of `Cc1cc(N)cc(C2=Cc3ccccc3C(C)C2)n1.O=C(O)/C=C/C(=O)O` (racemic) it was 183 to 185 °C (dec.). The same measure, in the same setting: the same measure for `Cc1cnc(C2=Cc3ccccc3C(C)C2)cc1N.O=C(O)/C=C/C(=O)O` (racemic): 210 to 211 °C. Compound `Nc1cccc(C=Cc2ccc(O)cc2)n1` [Example 11, 4-[2-(6-Amino-pyridin-2-yl)-vinyl]-phenol] came in with a melting point of 224 to 225 °C. `Cc1cc(/C=C/c2ccccc2)cc(N)n1` [Example 13, trans-6-Methyl-4-styryl-pyridin-2-yl-amine]: the melting point lay in the range of 149 to 150 °C. Also, the half-inhibitory concentration (IC50) (in general, the point on the concentration scale where inhibition reaches its midpoint) in data set [1] was determined as 30 nM. The like results for `Cc1cc(N)nc(/C=C/c2ccccc2)c1.Cl` [Example 14, trans-4-Methyl-6-styryl-pyridin-2-yl-amine hydrochloride] were, in that order, over 250 °C and 10 nM. `Nc1ccc(/C=C/c2ccccc2)nc1` [Example 15, trans-6-Styryl-pyridin-3-yl-amine] gave a melting point of 159 to 160 °C.

`Nc1ccnc(/C=C/c2ccccc2)c1` [Example 16, trans-2-Styryl-pyridin-4-yl-amine]: the melting point was 164 to 165 °C. The compound also showed an IC50 in data set [1] of 40 nM.

On to `Cl.NCc1cccc(/C=C/c2ccccc2)n1` [Example 18, trans-C-(6-Styryl-pyridin-2-yl)-methylamine hydrochloride], for which the melting point is 170 °C (dec.). In addition, the IC50 in data set [1] worked out at 80 nM. Consider `Cl.Nc1ccnc(C2=Cc3ccccc3CC2)c1` [Example 19, 2-(3,4-Dihydro-naphthalen-2-yl)-pyridin-4-yl-amine hydrochloride], for which the melting point fell in the range of 231 to 232 °C. The compound also yielded an IC50 in data set [1] of 18 nM. Regarding `Cc1cc(N)cc(C2=Cc3ccccc3CC2)n1.O=C(O)/C=C/C(=O)O` [Example 22, 2-(3,4-Dihydro-naphthalen-2-yl)-6-methyl-pyridin-4-yl-amine fumarate], the melting point lay in the range of 202 to 203 °C. For the same compound, in data set [1], the IC50 came to 32 nM. On to `Cc1cnc(C2=Cc3ccccc3CC2)cc1N.O=C(O)/C=C/C(=O)O` [Example 24, 2-(3,4-Dihydro-naphthalen-2-yl)-5-methyl-pyridin-4-yl-amine fumarate], for which the melting point is > 200 °C (dec.). Also, in data set [1], the IC50 amounted to 11 nM. In turn, `Cc1c(N)ccnc1C1=Cc2ccccc2CC1` [Example 25, 2-(3,4-Dihydro-naphthalen-2-yl)-3-methyl-pyridin-4-yl-amine] yielded a melting point of 87 to 88 °C. With `CCc1cc(N)cc(C2=Cc3ccccc3CC2)n1.O=C(O)/C=C/C(=O)O` [Example 26, 2-(3,4-Dihydro-naphthalen-2-yl)-6-ethyl-pyridin-4-yl-amine fumarate], the melting point was > 230 °C (dec.). The IC50 in data set [1] turned out to be 38 nM.

Consider `CNc1ccnc(C2=Cc3ccccc3CC2)c1.O=C(O)/C=C/C(=O)O` [Example 27, [2-(3,4-Dihydro-naphthalen-2-yl)-pyridin-4-yl]-methyl-amine fumarate], for which the melting point lay within 106 to 107 °C. In data set [1], this compound returned an IC50 of 52 nM. Turning to `Cl.NCc1cccc(C2=Cc3ccccc3CC2)n1` [Example 28, C-[6-(3,4-Dihydro-naphthalen-2-yl)-pyridin-2-yl]-methylamine hydrochloride], the melting point lay in the range of 203 to 204 °C. This compound displayed an IC50 in data set [1] of 38 nM. `Nc1ccnc(C2=Cc3cc(Cl)ccc3CC2)c1` [Example 30, 2-(7-Chloro-3,4-dihydro-naphthalen-2-yl)-pyridin-4-ylamine fumarate] displayed an IC50 in data set [1] of 20 nM. `Cc1cc(C)c2c(c1)C=C(c1cc(N)ccn1)CC2.O=C(O)/C=C/C(=O)O` [Example 34, 2-(5,7-Dimethyl-3,4-dihydro-naphthalen-2-yl)-pyridin-4-yl-amine fumarate] yielded a melting point of 231 to 232 °C. The compound also registered an IC50 in data set [1] of 57 nM. The matching figures for `CCc1cc(N)cc(C2=Cc3cc(Cl)ccc3CC2)n1.O=C(O)/C=C/C(=O)O` [Example 36, 2-(7-Chloro-3,4-dihydro-naphthalen-2-yl)-6-ethyl-pyridin-4-yl-amine fumarate]: 232 to 233 °C and 23 nM. Regarding `Cc1cc(N)cc(C2=Cc3cc(Cl)ccc3CC2)n1.O=C(O)/C=C/C(=O)O` [Example 37, 2-(7-Chloro-3,4-dihydro-naphthalen-2-yl)-6-methyl-pyridin-4-yl-amine fumarate], the melting point lay in the range of 232 to 233 °C. Further, the IC50 in data set [1] stood at 82 nM.

For the origin of these results see patent US7034044B2, “Conjugated aromatic compounds with a pyridine substituent” (Hoffmann-La Roche Inc., priority 2001, dated 2006).
